Legend:
Type in all cases: cell-based
[1] = system: E. coli No. 906; assay: Bactericidal activity: bacterial culture exposed in salt solution, neutralized, inoculated on solid nutrient medium; conditions: time of exposure 30 min, concentration from 1.0 to 2.5%
Experimental: (§1) The determination is performed on E. coli No. 906 and S. aureus No. 1257 test strains being usually used to study the bactericidal activity of biocides as well as on clinical strains—P. aeruginosa and methicillin-resistant strain S. aureus—at salt concentrations from 0.5 to 2% and time of exposure from 5 to 60 min.
(§2) The same method as described in Example 9 is used to determine the bactericidal activity of ZMA against three of four strains studied in Example 9.

[2] = system: P. aeruginosa (clinical strain); assay: as above; conditions: for Bactericidal activity: growth of P. aeruginosa: 1.0 % wt., CFU in 1 ml
Experimental: as §1, §2

[3] = system: E. coli No. 906, S. aureus No. 1257, P. aeruginosa, methicillin-resistant strain S. aureus; assay: Bactericidal activity, summary over the investigated strains
Experimental: as §1, §2

[4] = system: fungal spores; assay: Fungicidal activity according to GOST 30028.4-2006: resistance of treated material samples to fungal spores
[5] = system: S. aureus No. 1257; assay: Bactericidal activity: bacterial culture exposed in salt solution, neutralized, inoculated on solid nutrient medium; conditions: for Bactericidal activity: growth of S. aureus test strain: CFU in 1 ml
Experimental: The determination is performed on E. coli No. 906 and S. aureus No. […]
as §2

[6] = test material paper impregnated with latex SKS 65 GP, additive content 0.5 % wt.
[7] = test material paper impregnated with petrolatum base, additive content 4.7 % wt.
[8] = test material polyvinyl chloride emulsion, additive content 0.5 % wt.

| Compound | bactericidal activity (in words) against E. coli No. 906 [1] | Bactericidal activity: growth of P. aeruginosa ([2]; exposure 30 min) | bactericidal activity (in words) against P. aeruginosa ([2]; only at concentration from 2.5%) | bactericidal activity compared with the proposed salts ([3]; comparison of Table 3 with Table 2) | Tolerance time [4, 6] | Tolerance time [4, 7] | Tolerance time ([4]; test material polyvinyl chloride emulsion, additive content 5 % wt.) | Bactericidal activity: growth of S. aureus test strain ([5]; 2.5 % wt., exposure 30 min) | Bactericidal activity: growth of S. aureus test strain ([5]; 5 % wt., exposure 5 min) | bactericidal activity (in words) against S. aureus No. 1257 ([5]; only at concentration of 2.5% and time of exposure of 60 min) | Tolerance time [4, 8] | Bactericidal activity: growth of P. aeruginosa ([2]; exposure 5 min) | bactericidal effect (in words) ([3]; concentration 1.0%, time of exposure from 30 min) | Bactericidal activity: growth of S. aureus test strain ([5]; 1.0 % wt., exposure 15 min) |
| --- | --- | --- | --- | --- | --- | --- | --- | --- | --- | --- | --- | --- | --- | --- |
| C=C(C)C(=O)[O-].CC(=O)[O-].[Zn+2] [ZMA, zinc methacrylate-acetate] | stable bactericidal activity | >300 CFU | not completely stable bactericidal activity | substantially lower than that of the proposed salts | 12 days | 16 days | 22 days | >300 CFU | >300 CFU | sub-bactericidal activity | – | – | – | – |
| C=CC(=O)[O-].O=C([O-])c1ccccc1.[Zn+2] [Zinc acrylate-benzoate] | – | – | – | – | – | – | – | – | – | – | 11 days | – | – | – |
| Zinc methacrylate-sulfosalicylate | – | – | – | – | 16 days | 20 days | – | – | – | – | 16 days | 1 CFU | stable bactericidal effect against three of four investigated strains | >300 CFU |
